Test results as given in patent US20240139221A1, “TREATMENT OF HPV-INDUCED NEOPLASIA” (priority 2022, published 2024).

How the values were obtained:
[1] = Hygroscopicity by DVS at 25° C.; type: physicochemical; conditions: for Hygroscopicity (in words): DVS 25° C.; for XRPD after DVS test: after 40-0-95-0-40% RH cycle, 25° C.
Protocol: Hygroscopicity was investigated by DVS at 25° C., using the following method: […]

[2] = Bulk stability (accelerated stability, one week; HPLC and XRPD); conditions: for physical and chemical stability (in words): 25° C./92% RH open, 40° C./75% RH open, 60° C. tight container, one week; for Bulk (XRPD) / Color / Purity, Bulk (HPLC): Solid state, 1 week; for Initial HPLC purity: before storage
Protocol: Bulk stability: Accelerated stability experiments were conducted at 25° C./92% RH and 40° C./75% RH in an open container, 60° C. in a tight container for one week.
Samples were characterized by XRPD and HPLC and inspected for color change.
Accelerated stability experiments were conducted at 25° C./92% RH in an open container, at 40° C./75% RH in an open container, and at 60° C. in a tight container for one week.

[3] = Polymorph screening by equilibration in solvents at 25° C. (crystal modification, XRPD); type: physicochemical
physchem = conditions: for solubility / solubility at 0.5 h / solubility at 2 h: 37 °C, thermodynamic from solid; for pH of solution, 2 hours / Solubility 2 hours: 37° C.; for Solubility 2 hours: target 10 mg/5 mL
Protocol: About 4 mg of Compound I Pattern 1 was added into 2 mL of buffer solution.
(§1) Solubility was tested in five media, pH 3.0 citrate buffer, pH 4.5 acetate buffer, pH 6.8 phosphate buffer, water, simulated vaginal fluid (pH 4.2) at 37° C. for 0.5 h and 2 h.
The salt amount used is equivalent to 10 mg anhydrous free base. […] The obtained clear solutions were analyzed by pH meter for pH, and solubility was determined by observation.
as §1

[4] = Ex vivo permeation and penetration across porcine vaginal tissue (Franz diffusion cells, IVPT); type: in vitro ADME; conditions: FIG. 116
Text: (§2) FIG. 116 is an in vitro tissue permeation test in vaginal tissue comparing Compound II to ABI-1968. […] Bars B and C show the tissue penetration of a 0.1% Compound II gel in human cervical tissue. […] This may be a contributing factor to the performance of ABI-1968 in clinical studies. […] This is described in Example 41.
Freshly harvested porcine vaginal tissue was procured from local slaughterhouse in an ice box. The vaginal tissue was cut open to expose the mucosal surface and tissue was cleaned by gentle flow of PBS pH 7.4. The porcine vaginal tissue was cut into circular portions (approximately 2 cm^2) with help of a […] punch.
The circular portion of tissue was sandwiched between two chambers of a Franz diffusion cell with an active diffusion area of 1 cm^2, and the mucosal layer was exposed to the donor chambers. The resistance across porcine vaginal tissue was measured using a wave form generator to ensure the integrity of the tissue segment used for the permeation study. Porcine vaginal tissue with resistance of ≥3 KΩ·cm^2 was used for study. The receiver chamber was filled with 8 ml of 5% solutol PBS 7.4 pH, which was stirred at 600 rpm with a 3 mm magnetic stir bar and the temperature was maintained at 37° C. with a circulating water bath.
The ˜200 mg of gel was filled into tared 1 mL syringe and gel was dispensed to donor chamber. […]

[5] = In vitro tissue permeation test in human cervical tissue; type: in vitro ADME; conditions: 0.1% gel, FIG. 116
Text: as §2

[6] = cycle of 40-0-95-0-45% relative humidity
[7] = PS7, solvent IPA/heptanes (3/10, v/v)
[8] = PS8, solvent water/ACN (2.9/97.1, v/v)
[9] = PS9, solvent IPA/MTBE (1/3, v/v)
[10] = PS10, solvent EA/toluene (1/3, v/v)
[11] = pH 4.2, fassgf or other biorelevant
[12] = Simulated vaginal fluid (pH adjusted by 0.1N NaOH)

CCOC(=O)[C@H](C)N[P@](=O)(COCCn1cnc2c(OC)nc(N)nc21)OCc1ccccc1 (single isomer, unassigned) [Compound III, monofumarate]
Hygroscopicity (in words) [1]: slightly hygroscopic
XRPD after DVS test [1]: No form change
XRPD pattern after humidity cycle [1, 6]: lose one of the peaks
increase in retained water content versus Compound II [1, 6]: 40 fold
physical and chemical stability (in words) [2]: good physical stability
Bulk (XRPD) ([2]; 25° C./92% RH, open container): No form change
Color ([2]; 25° C./92% RH, open container): No change
Purity, Bulk (HPLC) ([2]; 25° C./92% RH, open container): 98.7%
Bulk (XRPD) ([2]; 40° C./75% RH, open container): No form change (One
Color ([2]; 40° C./75% RH, open container): No change
Purity, Bulk (HPLC) ([2]; 40° C./75% RH, open container): 97.2%
Bulk (XRPD) ([2]; 60° C., tight container): No form change (One
Color ([2]; 60° C., tight container): No change
Purity, Bulk (HPLC) ([2]; 60° C., tight container): 97.3%
Initial HPLC purity [2]: 98.8%
Crystal modification after 1 week equilibration at 25° C. ([3]; PS1, solvent IPA): Compound V Pattern 2
Crystal modification after 1 week equilibration at 25° C. ([3]; PS2, solvent Heptanes): Compound III Pattern 2
Crystal modification after 1 week equilibration at 25° C. ([3]; PS3, solvent Water): Compound III Pattern 3
Crystal modification after 1 week equilibration at 25° C. ([3]; PS4, solvent ACN): Compound III Pattern 4
Crystal modification after 1 week equilibration at 25° C. ([3]; PS5, solvent MEK): Compound III Pattern 5
Crystal modification after 1 week equilibration at 25° C. [3, 7]: Compound III Pattern 2
Crystal modification after 1 week equilibration at 25° C. [3, 8]: Compound III Pattern 4
Crystal modification after 1 week equilibration at 25° C. [3, 9]: Compound III Pattern 6
Crystal modification after 1 week equilibration at 25° C. [3, 10]: Compound III Pattern 2
solubility (physchem; aqueous buffer): > 2000 µg/mL
solubility (physchem; pH 3, aqueous buffer): > 2000 µg/mL
solubility (physchem; [11]): > 2000 µg/mL
solubility (physchem; pH 4.5, aqueous buffer): > 2000 µg/mL
solubility (physchem; pH 6.8, aqueous buffer): > 2000 µg/mL
solubility (physchem; water): > 2000 µg/mL
pH of solution, 2 hours (physchem; [12]): 5.37
Solubility 2 hours (physchem; [12]): > 2 mg/mL
pH of solution, 2 hours (physchem; Water): 2.78
Solubility 2 hours (physchem; Water): > 2 mg/mL
pH of solution, 2 hours (physchem; pH 3.0, 100 mM citrate buffer): 2.83
Solubility 2 hours (physchem; pH 3.0, 100 mM citrate buffer): > 2 mg/mL
pH of solution, 2 hours (physchem; pH 4.5, 50 mM acetate buffer): 4.12
Solubility 2 hours (physchem; pH 4.5, 50 mM acetate buffer): > 2 mg/mL
pH of solution, 2 hours (physchem; pH 6.8, 50 mM phosphate buffer): 6.44
Solubility 2 hours (physchem; pH 6.8, 50 mM phosphate buffer): > 2 mg/mL

CCCCCCCCCCCCCCCCCCOCCOP(=O)(O)COCCn1cnc2c(=O)[nH]c(N)nc21 [ABI-1968, reference compound]
tissue penetration (in words) [4]: substantially smaller degree

CCOC(=O)[C@H](C)N[P@@](=O)(COCCn1cnc2c(OC)nc(N)nc21)OCc1ccccc1.O=C(O)/C=C/C(=O)O [Compound II]
Hygroscopicity (in words) [1]: slightly hygroscopic
XRPD after DVS test [1]: No form change
XRPD pattern after humidity cycle [1, 6]: does not change
physical and chemical stability (in words) [2]: good physical and chemical stability
Bulk (XRPD) ([2]; 25° C./92% RH, open container): No form change
Color ([2]; 25° C./92% RH, open container): No change
Purity, Bulk (HPLC) ([2]; 25° C./92% RH, open container): 99.5%
Bulk (XRPD) ([2]; 40° C./75% RH, open container): No form change
Color ([2]; 40° C./75% RH, open container): No change
Purity, Bulk (HPLC) ([2]; 40° C./75% RH, open container): 99.4%
Bulk (XRPD) ([2]; 60° C., tight container): No form change
Color ([2]; 60° C., tight container): No change
Purity, Bulk (HPLC) ([2]; 60° C., tight container): 99.7%
Initial HPLC purity [2]: 99.7%
Crystal modification after 1 week equilibration at 25° C. ([3]; PS1, solvent IPA): Compound II Pattern 1
Crystal modification after 1 week equilibration at 25° C. ([3]; PS2, solvent Heptanes): Compound II Pattern 1
Crystal modification after 1 week equilibration at 25° C. ([3]; PS3, solvent Water): Compound II Pattern 1
Crystal modification after 1 week equilibration at 25° C. ([3]; PS4, solvent ACN): Compound II Pattern 2
Crystal modification after 1 week equilibration at 25° C. ([3]; PS5, solvent MEK): Compound II Pattern 3
Crystal modification after 1 week equilibration at 25° C. ([3]; PS6, solvent Acetone): Compound II Pattern 1
Crystal modification after 1 week equilibration at 25° C. [3, 7]: Compound II Pattern 1
Crystal modification after 1 week equilibration at 25° C. [3, 8]: Compound II Pattern 2
Crystal modification after 1 week equilibration at 25° C. [3, 9]: Compound II Pattern 1
Crystal modification after 1 week equilibration at 25° C. [3, 10]: Compound II Pattern 1
solubility (physchem; aqueous buffer): > 2000 µg/mL
solubility at 0.5 h (physchem; pH 3, aqueous buffer): > 2000 µg/mL
solubility at 2 h (physchem; pH 3, aqueous buffer): > 2000 µg/mL
solubility at 0.5 h (physchem; [11]): > 2000 µg/mL
solubility at 2 h (physchem; [11]): > 2000 µg/mL
solubility at 0.5 h (physchem; pH 4.5, aqueous buffer): > 2000 µg/mL
solubility at 2 h (physchem; pH 4.5, aqueous buffer): > 2000 µg/mL
solubility at 0.5 h (physchem; pH 6.8, aqueous buffer): > 2000 µg/mL
solubility at 2 h (physchem; pH 6.8, aqueous buffer): > 2000 µg/mL
solubility at 0.5 h (physchem; water): > 2000 µg/mL
solubility at 2 h (physchem; water): > 2000 µg/mL
pH of solution, 2 hours (physchem; [12]): (5.79)
pH of solution, 2 hours (physchem; Water): (2.87)
pH of solution, 2 hours (physchem; pH 3.0, 100 mM citrate buffer): (2.85)
pH of solution, 2 hours (physchem; pH 4.5, 50 mM acetate buffer): (4.2)
pH of solution, 2 hours (physchem; pH 6.8, 50 mM phosphate buffer): (6.47)
tissue penetration (in words) [4]: high tissue penetration
tissue penetration (in words) [5]: high tissue penetration
